Test results as given in paper PMC4349892, “Biochemical Characterization of Three BLT Receptors in Zebrafish” (PLoS ONE, 2015).

How the values were obtained:
Assay type in all cases: biochemical
Conditions in all cases: agonist; pH 7.4 (calcium); GTPγS binding at 1 μM ligand, 30°C; dose-response curves only in figures
[1] = molecular target: T1, hBLT2 (Homo sapiens, UniProt Q9NPC1); test: calcium mobilization (Fluo-8), […]GTPγS binding, cAMP inhibition, TGFα shedding
T1 construct: gene LTB4R2; also HEK293 with Gq/i1
T1 sequence (Q9NPC1 1-358): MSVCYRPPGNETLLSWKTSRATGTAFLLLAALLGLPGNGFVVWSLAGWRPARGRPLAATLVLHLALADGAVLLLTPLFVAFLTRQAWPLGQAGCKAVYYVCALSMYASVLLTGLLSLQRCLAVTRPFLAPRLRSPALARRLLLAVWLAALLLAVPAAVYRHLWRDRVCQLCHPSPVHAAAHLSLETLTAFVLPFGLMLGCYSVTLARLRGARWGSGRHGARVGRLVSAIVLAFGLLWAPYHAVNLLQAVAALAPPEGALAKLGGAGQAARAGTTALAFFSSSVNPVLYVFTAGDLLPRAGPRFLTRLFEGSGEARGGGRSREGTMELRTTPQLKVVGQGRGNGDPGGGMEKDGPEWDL

[2] = molecular target: T2, zebrafish Blt2b (Danio rerio, UniProt E7F4K9); test: as above
T2 construct: gene ltb4r2b; also HEK293 with Gq/i1; LC009451 assigned by order of listing
T2 sequence (E7F4K9 1-339): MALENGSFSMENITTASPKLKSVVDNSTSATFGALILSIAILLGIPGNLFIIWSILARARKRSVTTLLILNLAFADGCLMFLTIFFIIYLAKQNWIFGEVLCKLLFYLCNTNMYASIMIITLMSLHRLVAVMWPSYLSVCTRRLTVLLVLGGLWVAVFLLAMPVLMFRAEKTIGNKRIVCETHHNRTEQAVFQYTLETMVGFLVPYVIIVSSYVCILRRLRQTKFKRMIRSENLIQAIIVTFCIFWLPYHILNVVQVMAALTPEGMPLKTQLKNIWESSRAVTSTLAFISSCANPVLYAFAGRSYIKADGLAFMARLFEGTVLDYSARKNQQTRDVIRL

[3] = molecular target: T3, zebrafish Blt1 (Danio rerio, UniProt A0A0A8JWS4); test: as above
T3 construct: gene ltb4r; also HEK293 with Gq/i1
T3 sequence (A0A0A8JWS4 1-380): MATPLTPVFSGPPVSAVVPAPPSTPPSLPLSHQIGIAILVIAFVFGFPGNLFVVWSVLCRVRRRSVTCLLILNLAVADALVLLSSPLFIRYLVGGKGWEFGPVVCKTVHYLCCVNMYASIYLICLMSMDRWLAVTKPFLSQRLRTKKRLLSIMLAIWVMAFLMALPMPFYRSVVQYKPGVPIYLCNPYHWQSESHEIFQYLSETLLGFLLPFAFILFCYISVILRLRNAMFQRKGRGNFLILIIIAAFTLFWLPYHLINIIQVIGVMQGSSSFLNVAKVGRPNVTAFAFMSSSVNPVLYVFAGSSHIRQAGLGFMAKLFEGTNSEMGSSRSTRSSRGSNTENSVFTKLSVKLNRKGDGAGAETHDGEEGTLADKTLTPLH

[4] = molecular target: T4, hBLT1 (Homo sapiens, UniProt Q15722); test: as above
T4 construct: gene LTB4R; also HEK293 with Gq/i1

[5] = molecular target: T2, zebrafish Blt2b; test: calcium mobilization (Fluo-8), […]GTPγS binding, TGFα shedding
[6] = molecular target: T1, hBLT2
[7] = molecular target: T5, zebrafish Blt2a (Danio rerio, UniProt A0A0A8JZN4); test: calcium mobilization (Fluo-8), […]GTPγS binding, TGFα shedding
T5 construct: gene ltb4r2a; also HEK293 with Gq/i1; LC009450 assigned by order of listing
T5 sequence (A0A0A8JZN4 1-382): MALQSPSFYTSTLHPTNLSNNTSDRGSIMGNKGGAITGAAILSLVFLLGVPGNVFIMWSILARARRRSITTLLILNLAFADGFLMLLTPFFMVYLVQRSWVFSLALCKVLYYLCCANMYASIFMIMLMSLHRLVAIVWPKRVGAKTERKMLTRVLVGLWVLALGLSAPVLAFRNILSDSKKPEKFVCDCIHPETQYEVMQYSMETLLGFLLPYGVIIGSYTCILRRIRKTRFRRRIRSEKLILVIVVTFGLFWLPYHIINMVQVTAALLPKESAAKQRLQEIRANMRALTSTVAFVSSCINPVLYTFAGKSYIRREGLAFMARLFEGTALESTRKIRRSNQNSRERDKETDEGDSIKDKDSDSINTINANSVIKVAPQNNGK

T4 sequence (Q15722 whole entry): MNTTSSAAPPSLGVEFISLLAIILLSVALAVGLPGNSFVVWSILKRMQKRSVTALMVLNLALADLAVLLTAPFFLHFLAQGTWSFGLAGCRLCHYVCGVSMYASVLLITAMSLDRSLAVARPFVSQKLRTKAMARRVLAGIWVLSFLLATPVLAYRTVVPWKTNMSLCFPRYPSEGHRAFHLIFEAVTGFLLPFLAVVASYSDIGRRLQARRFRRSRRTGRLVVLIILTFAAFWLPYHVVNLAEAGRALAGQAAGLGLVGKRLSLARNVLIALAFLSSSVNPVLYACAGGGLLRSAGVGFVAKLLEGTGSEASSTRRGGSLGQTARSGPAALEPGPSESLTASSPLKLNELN

Row | Structure (SMILES) | calcium mobilization (Fluo-8), [35S]GTPγS binding, cAMP inhibition, TGFα sheddin [1] | calcium mobilization (Fluo-8), [35S]GTPγS binding, cAMP inhibition, TGFα sheddin [2] | calcium mobilization (Fluo-8), [35S]GTPγS binding, cAMP inhibition, TGFα sheddin [3] | calcium mobilization (Fluo-8), [35S]GTPγS binding, cAMP inhibition, TGFα sheddin [4] | calcium mobilization (Fluo-8), [35S]GTPγS binding, TGFα shedding [5] | calcium mobilization (Fluo-8), [35S]GTPγS binding, TGFα shedding [6] | calcium mobilization (Fluo-8), [35S]GTPγS binding, TGFα shedding [7]
1 | CCCCC[C@H](O)/C=C/C=C/C/C=C\CCCC(=O)O [12-HHT, 12(S)-hydroxy-5-cis-8,10-trans-heptadecatrienoic acid] | exhibited a dose-dependent increase in response to either 12-HHT or LTB4 stimulation | 12-HHT activated zebrafish Blt2a and Blt2b at lower doses than LTB4 | – | – | – | – | –
2 | CCCCC/C=C\C[C@@H](O)/C=C/C=C/C=C\[C@@H](O)CCCC(=O)O [LTB4] | – | – | intracellular free calcium concentration increased in a dose-dependent manner in response to LTB4 stimulation | intracellular free calcium concentration increased in a dose-dependent manner in response to LTB4 stimulation | exhibited a dose-dependent increase in response to either 12-HHT or LTB4 stimulation | exhibited a dose-dependent increase in response to either 12-HHT or LTB4 stimulation | exhibited a dose-dependent increase in response to either 12-HHT or LTB4 stimulation
